# Data: patent US11730811B2, “Method for treating subject suffering from flavivirus infection” (priority 2017, dated 2023)
# Tested on: human microvascular endothelial cells
# Test: in vitro transwell permeability assay (streptavidin-HRP leakage) with DENV NS1
# Format: cell-based
# Details: hyaluronidase 0.5 unit/mL to 50 units/mL added with DENV NS1 3 μg/ml for 6 hours; FIG. 6
# Excerpt: Vascular leakage is an important feature in several diseases, such as septic shock, viral hemorrhagic fever, cancer metastasis and ischemia-reperfusion injuries. Thus, an in vitro endothelial permeability assay will provide insight into the establishment or progression of such diseases. The transwell permeability assays directly detect the penetration of a specific molecule, which can be detected by a spectrometer-based absorbance reader.
# The permeability of human microvascular endothelial cells treated or not with DENV NS1 (3 μg/ml, Cat. No. ENZ-PRT105-0100, Enzo Life Sciences, Inc., NY, U.S.A.), was measured by an in vitro transwell permeability assay that mimics human endothelium in vivo (referring to http://www.bio-protocol.org/e2273). In brief, human microvascular endothelial cells (2×10^5) were grown in a 24-Transwell® (pore size: 0.4 μm, Cat. No. 3414; Corning, Kennebunk, Me., U.S.A.) for 5 days until a confluent monolayer was formed. […] Twenty microliters of medium, from each lower chamber, was transferred to a 96-well plate and analyzed for HRP activity by adding 100 μL 3,3′,5,5′-tetramethylbenzidine (TMB) substrate (Sigma-Aldrich, Cat. No. T4444, St. Louis, Mo., U.S.A.). Color development was detected by an EnSpire Multimode Reader (PerkinElmer, Upplands Väsby, Sweden) at 450 nm.
substance,measurement,value
hyaluronidase,DENV NS1-induced endothelial hyper-permeability,reverse the DENV NS1-induced endothelial hyper-permeability significantly
